{
  "source": "patent US11357229B2",
  "about": "“Composition, uses and preparation process thereof, as well as method to ensure high corn crop yield” (priority 2011, dated 2022)",
  "format_in_all_cases": "in vivo, Zea mays",
  "key": {"[1]": {"system": "corn", "assay": "Ethephon applied to corn at stage V8, Nova Mutum; methomyl and pyraclostrobin+epoxyconazole added in all treatments", "conditions": "for Increased Yield: 100,000 plants/ha vs control at normal density", "protocol": "Example 1—Effect of Growth Regulator Ethephon Applied to Corn at the Stage of Development V8\n(§1) In the moment of the application, the insecticide methomyl (215 g ha^−1 a.i.) and the fungicide pyraclostrobin+epoxyconazole (99.75+37.5 g ha^−1 a.i.) were added in all treatments, including the control."}, "[2]": {"system": "corn", "assay": "Ethephon applied to corn at stage V6, Nova Mutum; chlorantraniliprole and cyproconazole+azoxystrobin added in all treatments", "conditions": "for Increased Yield: 100,000 plants/ha vs control at normal density", "protocol": "Example 2—Effect of Growth Regulator Ethephon Applied to Corn at the Stage of Development V6\n(§2) In the moment of the application, the insecticide chlorantraniliprole (25 g ha^−1 a.i.) and the fungicide cyproconazole+azoxystrobin (24+60 g ha^−1 a.i.) were added in all treatments, including the control."}, "[3]": {"system": "corn", "assay": "Ethephon+cyclanilide applied to corn at stage V8, Nova Mutum; methomyl and pyraclostrobin+epoxyconazole added in all treatments", "conditions": "estimation at 100,000 plants per hectare vs control at normal density of sowing (Table 6)", "protocol": "Example 3—Effect of Growth Regulator Ethephon+Cyclanilide Applied to Corn at the Stage of Development V8\nas §1"}, "[4]": {"system": "corn", "assay": "BF 428-5 applied to corn at stage V6, Nova Mutum; chlorantraniliprole and cyproconazole+azoxystrobin added in all treatments", "conditions": "V6; 30 DAA; all treatments (Table 11)", "protocol": "Example 6—Effect of Growth Regulator BF 428-5 Applied to Corn at the Stage of Development V6\nas §2"}, "[5]": {"system": "corn plants", "assay": "Growth regulator applied in the late vegetative stage of corn (V6-V9), inventors' finding", "conditions": "application in the late vegetative stage (V6-V9)", "description": "The solution to such problems related to corn crops would be to limit plant growth through the use of plant growth regulators, commonly used in other crops (cotton, wheat), but without any tradition in corn crop in order to provide the cultivation of high densities of corn plants per hectare with a view to achieving considerable increase in the crop's yield potential, as well as to improving pest and disease control in the crop."}},
  "data": [
    {"smiles": "O=P(O)(O)CCCl", "note": "[Ethephon, 2-chloroethylphosphonic acid]", "values": [
      {"measurement": "effects on the corn plant", "setting": "[1]; V8", "result": "reduction in shoot length, increased formation of adventitious roots, strengthening of the stem, strengthening of the root system, increased ventilation in the culture, proper development of male and female inflorescences"},
      {"measurement": "effect on length and diameter of ears of corn", "setting": "[1]; V8 (Table 1)", "result": "reduces"},
      {"measurement": "yield reduction", "setting": "[1]; V8 (Table 1)", "result": "not significant"},
      {"measurement": "shoot length", "setting": "[1]; V8, 30 DAA, all treatments with application of ethephon (Table 1)", "result": "less than or equal to 159.1 cm"},
      {"measurement": "Ear Diameter", "setting": "[1]; V8, 216 g ha^−1 a.i.", "result": 50.4, "unit": "mm"},
      {"measurement": "Ear Length", "setting": "[1]; V8, 216 g ha^−1 a.i.", "result": 25.8, "unit": "cm"},
      {"measurement": "Yield", "setting": "[1]; V8, 216 g ha^−1 a.i.", "result": 4335.6, "unit": "kg/ha"},
      {"measurement": "Height (shoot length)", "setting": "[1]; V8, 216 g ha^−1 a.i., 30 DAA", "result": 157.3, "unit": "cm"},
      {"measurement": "Population of corn plants 60,000 plants/ha, kg/corn plant", "setting": "[1]; V8, 216 g ha^−1 a.i.", "result": 0.072, "unit": "kg/corn plant"},
      {"measurement": "Population of corn plants 100,000 plants/ha, kg/corn plant", "setting": "[1]; V8, 216 g ha^−1 a.i.", "result": 0.072, "unit": "kg/corn plant"},
      {"measurement": "Yield estimates 100,000 plants/ha", "setting": "[1]; V8, 216 g ha^−1 a.i.", "result": 7226.0, "unit": "kg/ha"},
      {"measurement": "Increased Yield", "setting": "[1]; V8, 216 g ha^−1 a.i.", "result": 42.4, "unit": "%"},
      {"measurement": "Ear Diameter", "setting": "[1]; V8, 360 g ha^−1 a.i.", "result": 51.6, "unit": "mm"},
      {"measurement": "Ear Length", "setting": "[1]; V8, 360 g ha^−1 a.i.", "result": 25.6, "unit": "cm"},
      {"measurement": "Yield", "setting": "[1]; V8, 360 g ha^−1 a.i.", "result": 4253.3, "unit": "kg/ha"},
      {"measurement": "Height (shoot length)", "setting": "[1]; V8, 360 g ha^−1 a.i., 30 DAA", "result": 153.9, "unit": "cm"},
      {"measurement": "Population of corn plants 60,000 plants/ha, kg/corn plant", "setting": "[1]; V8, 360 g ha^−1 a.i.", "result": 0.071, "unit": "kg/corn plant"},
      {"measurement": "Population of corn plants 100,000 plants/ha, kg/corn plant", "setting": "[1]; V8, 360 g ha^−1 a.i.", "result": 0.071, "unit": "kg/corn plant"},
      {"measurement": "Yield estimates 100,000 plants/ha", "setting": "[1]; V8, 360 g ha^−1 a.i.", "result": 7088.8, "unit": "kg/ha"},
      {"measurement": "Increased Yield", "setting": "[1]; V8, 360 g ha^−1 a.i.", "result": 39.7, "unit": "%"},
      {"measurement": "Ear Diameter", "setting": "[1]; V8, 576 g ha^−1 a.i.", "result": 50.7, "unit": "mm"},
      {"measurement": "Ear Length", "setting": "[1]; V8, 576 g ha^−1 a.i.", "result": 25.4, "unit": "cm"},
      {"measurement": "Yield", "setting": "[1]; V8, 576 g ha^−1 a.i.", "result": 4680.0, "unit": "kg/ha"},
      {"measurement": "Height (shoot length)", "setting": "[1]; V8, 576 g ha^−1 a.i., 30 DAA", "result": 152.2, "unit": "cm"},
      {"measurement": "Population of corn plants 60,000 plants/ha, kg/corn plant", "setting": "[1]; V8, 576 g ha^−1 a.i.", "result": 0.078, "unit": "kg/corn plant"},
      {"measurement": "Population of corn plants 100,000 plants/ha, kg/corn plant", "setting": "[1]; V8, 576 g ha^−1 a.i.", "result": 0.078, "unit": "kg/corn plant"},
      {"measurement": "Yield estimates 100,000 plants/ha", "setting": "[1]; V8, 576 g ha^−1 a.i.", "result": 7800.0, "unit": "kg/ha"},
      {"measurement": "Increased Yield", "setting": "[1]; V8, 576 g ha^−1 a.i.", "result": 53.7, "unit": "%"},
      {"measurement": "yield increases", "setting": "[1]; V8, estimation at 100,000 plants per hectare vs control at normal density of sowing (Table 2)", "result": "more than 39%"},
      {"measurement": "effects on the corn plant", "setting": "[2]; V6", "result": "reduction in shoot length, increased formation of adventitious roots, strengthening of the stem, strengthening of the root system, increased ventilation in the culture, proper development of male and female inflorescences"},
      {"measurement": "effect on length and diameter of ears of corn", "setting": "[2]; V6 (Table 3)", "result": "reduces"},
      {"measurement": "yield reduction / increase", "setting": "[2]; V6 (Table 3)", "result": "yield reduction was significant for some treatments, and the yield increase was also significant for some treatments"},
      {"measurement": "shoot length", "setting": "[2]; V6, 30 DAA, all treatments with application of ethephon (Table 3)", "result": "less than or equal to 152.5 cm"},
      {"measurement": "Ear Diameter", "setting": "[2]; V6, 216 g ha^−1 a.i.", "result": 37.9, "unit": "mm"},
      {"measurement": "Ear Length", "setting": "[2]; V6, 216 g ha^−1 a.i.", "result": 21.4, "unit": "cm"},
      {"measurement": "Yield", "setting": "[2]; V6, 216 g ha^−1 a.i.", "result": 1906.7, "unit": "kg/ha"},
      {"measurement": "Height (shoot length)", "setting": "[2]; V6, 216 g ha^−1 a.i., 30 DAA", "result": 144.3, "unit": "cm"},
      {"measurement": "Population of corn plants 60,000 plants/ha, kg/corn plant", "setting": "[2]; V6, 216 g ha^−1 a.i.", "result": 0.032, "unit": "kg/corn plant"},
      {"measurement": "Population of corn plants 100,000 plants/ha, kg/corn plant", "setting": "[2]; V6, 216 g ha^−1 a.i.", "result": 0.032, "unit": "kg/corn plant"},
      {"measurement": "Yield estimates 100,000 plants/ha", "setting": "[2]; V6, 216 g ha^−1 a.i.", "result": 3177.8, "unit": "kg/ha"},
      {"measurement": "Increased Yield", "setting": "[2]; V6, 216 g ha^−1 a.i.", "result": 10.1, "unit": "%"},
      {"measurement": "Ear Diameter", "setting": "[2]; V6, 360 g ha^−1 a.i.", "result": 36.7, "unit": "mm"},
      {"measurement": "Ear Length", "setting": "[2]; V6, 360 g ha^−1 a.i.", "result": 21.1, "unit": "cm"},
      {"measurement": "Yield", "setting": "[2]; V6, 360 g ha^−1 a.i.", "result": 3553.3, "unit": "kg/ha"},
      {"measurement": "Height (shoot length)", "setting": "[2]; V6, 360 g ha^−1 a.i., 30 DAA", "result": 148.5, "unit": "cm"},
      {"measurement": "Population of corn plants 60,000 plants/ha, kg/corn plant", "setting": "[2]; V6, 360 g ha^−1 a.i.", "result": 0.059, "unit": "kg/corn plant"},
      {"measurement": "Population of corn plants 100,000 plants/ha, kg/corn plant", "setting": "[2]; V6, 360 g ha^−1 a.i.", "result": 0.059, "unit": "kg/corn plant"},
      {"measurement": "Yield estimates 100,000 plants/ha", "setting": "[2]; V6, 360 g ha^−1 a.i.", "result": 5922.2, "unit": "kg/ha"},
      {"measurement": "Increased Yield", "setting": "[2]; V6, 360 g ha^−1 a.i.", "result": 105.2, "unit": "%"},
      {"measurement": "Ear Diameter", "setting": "[2]; V6, 576 g ha^−1 a.i.", "result": 37.7, "unit": "mm"},
      {"measurement": "Ear Length", "setting": "[2]; V6, 576 g ha^−1 a.i.", "result": 23.3, "unit": "cm"},
      {"measurement": "Yield", "setting": "[2]; V6, 576 g ha^−1 a.i.", "result": 3540.0, "unit": "kg/ha"},
      {"measurement": "Height (shoot length)", "setting": "[2]; V6, 576 g ha^−1 a.i., 30 DAA", "result": 144.9, "unit": "cm"},
      {"measurement": "Population of corn plants 60,000 plants/ha, kg/corn plant", "setting": "[2]; V6, 576 g ha^−1 a.i.", "result": 0.059, "unit": "kg/corn plant"},
      {"measurement": "Population of corn plants 100,000 plants/ha, kg/corn plant", "setting": "[2]; V6, 576 g ha^−1 a.i.", "result": 0.059, "unit": "kg/corn plant"},
      {"measurement": "Yield estimates 100,000 plants/ha", "setting": "[2]; V6, 576 g ha^−1 a.i.", "result": 5900.0, "unit": "kg/ha"},
      {"measurement": "Increased Yield", "setting": "[2]; V6, 576 g ha^−1 a.i.", "result": 104.4, "unit": "%"},
      {"measurement": "yield increases", "setting": "[2]; V6, estimation at 100,000 plants per hectare vs control at normal density of sowing (Table 4)", "result": "more than 10.1%"},
      {"measurement": "yield increases", "setting": "[3]", "result": "more than 44.4%"},
      {"measurement": "shoot length", "setting": "[4]", "result": "less than or equal to 206.0 cm"},
      {"measurement": "root system", "setting": "[5]", "result": "stronger root system"}
    ]}
  ]
}
